The test addresses Methionine aminopeptidase 2 (Homo sapiens) (UniProt P50579). Briefly: Inhibition of MetAP2 activity in HUVEC assessed as inhibition of cell proliferation by MTT assay.

pEC50: −log10 of the molar value.

Results on seven molecules are retold here after BindingDB's records for doi:10.1124/dmd.112.048355 (Glaxosmithkline, 2013).

Methionine aminopeptidase 2 (Homo sapiens), sequence (P50579 whole entry, looked up): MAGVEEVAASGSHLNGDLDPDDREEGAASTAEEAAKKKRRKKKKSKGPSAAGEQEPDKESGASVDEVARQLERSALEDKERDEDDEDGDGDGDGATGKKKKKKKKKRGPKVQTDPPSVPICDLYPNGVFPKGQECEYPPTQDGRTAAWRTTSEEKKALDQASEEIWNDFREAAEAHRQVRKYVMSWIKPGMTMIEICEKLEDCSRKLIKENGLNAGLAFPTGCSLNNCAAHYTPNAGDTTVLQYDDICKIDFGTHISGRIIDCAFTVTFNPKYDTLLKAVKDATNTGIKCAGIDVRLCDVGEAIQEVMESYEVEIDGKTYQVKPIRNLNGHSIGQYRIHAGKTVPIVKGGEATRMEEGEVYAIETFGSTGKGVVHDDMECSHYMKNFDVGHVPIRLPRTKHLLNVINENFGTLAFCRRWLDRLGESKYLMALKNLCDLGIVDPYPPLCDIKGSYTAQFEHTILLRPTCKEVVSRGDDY

Regarding `CO[C@@H]1[C@H](OC(=O)N[C@@H](C(N)=O)C(C)(C)O)CC[C@]2(CO2)[C@H]1[C@@]1(C)O[C@@H]1C[C@@H]1OC1(C)C`, the pEC50 is 7.92.
Take `CO[C@@H]1[C@H](OC(=O)N[C@@H](C(N)=O)C(C)C)CC[C@]2(CO2)[C@H]1[C@@]1(C)O[C@@H]1C[C@H]1OC1(C)C`: the pEC50 is 8.89.
Turning to `CO[C@@H]1[C@H](OC(=O)N[C@@H](C(N)=O)C(C)C)CC[C@]2(CO2)[C@H]1[C@@]1(C)O[C@@H]1C[C@@H]1OC1(C)C`, the pEC50 is 8.19.
To `CO[C@@H]1[C@H](OC(=O)N[C@@H](C(N)=O)C(C)(C)O)CC[C@]2(CO2)[C@H]1[C@@]1(C)O[C@@H]1C[C@H]1OC1(C)C` belongs 8.06.
On to `CO[C@@H]1[C@H](OC(=O)N[C@@H](C(N)=O)C(C)(C)O)CC[C@]2(CO2)[C@H]1[C@@]1(C)O[C@@H]1CC=C(C)C`, for which the pEC50 is 9.52.
In the case of `CO[C@@H]1[C@H](OC(=O)N[C@@H](C(N)=O)C(C)C)CC[C@]2(CO2)[C@H]1[C@@]1(C)O[C@@H]1CC=C(C)C`, the pEC50 is 10.02.
For `CO[C@@H]1[C@H](OC(=O)N[C@@H](C(N)=O)C(C)C)CC[C@]2(CO2)[C@H]1[C@@]1(C)O[C@@H]1C/C=C(\C)CO`, the pEC50 is 8.15.
